Results published in patent US8709506B2, “Synergistic compositions for the treatment of topical viral infections” (Vitro Bio Sarl, priority 2010, dated 2014).

Tests used:
herpes virus = assay type: cell-based; settings: for % cell death after 72 h TCID50 herpes virus infection: protease 0.5 μg/ml, Vero cells, serum free medium, virus control 56.0 ± 2.3
influenza virus = assay type: cell-based; settings: for % cell death after 72 h TCID50 influenza virus infection: protease 0.5 μg/ml, MDCK cells, serum free medium, virus control 48.21 ± 6.77

| Substance | % increase in herpes virus growth compared to controls (herpes virus) | % cell death after 72 h TCID50 herpes virus infection (herpes virus) | % increase in influenza viral growth compared to virus control (influenza virus) | % cell death after 72 h TCID50 influenza virus infection (influenza virus) |
| --- | --- | --- | --- | --- |
| MMP-3: purified human MMP 3 (stromelysin-1), AnaSpec | +7.57% | 64.16 ± 4.29% | −8.49% |  |
| MMP-10: purified human MMP-10 (stromelysin 2), AnaSpec | +25.82% | 70.46 ± 5.41% | +8.26% | 52.19 ± 7.56% |
| MMP-1: purified human MMP 1 (interstitial and fibroblast collagenase), AnaSpec | +8.43% | 66.32 ± 7.11% | +63.87% | 47.76 ± 7.26% |
| MMP-7: purified human MMP7 (proenzyme), AnaSpec | +1.96% | 57.10 ± 6.68% | +50.92% | 72.76 ± 5.96% |
